Experiments:
Assay type in all cases: in vivo
Spodoptera litura [1] = test: Leaf dip method (tomato leaves), Bacillus thuringiensis mixture against Spodoptera litura (Example E); settings: 0.1 ppm; 72 h
Description: (§1) In which E represents the expected percentage of inhibition of the pests for the combination of two insecticides or one insecticide and one fungicide at defined doses (for example equal to x and y respectively), x is the percentage of inhibition observed for the pest/disease by the compound (1) at a given dose (equal to x), y is the percentage of inhibition observed for the pest/disease by the compound (2) or (3) at a defined dose (equal to y). When the percentage of inhibition observed for the combination is greater than E, there is a synergistic effect.
(§2) The leaf dip method was used, wherein the required quantity of the compounds were weighed and dissolved in a test solution prepared in tubes. The tubes were put on a vortex at 2000 rpm for 90 min for proper mixing and then, for the single compounds, diluted with a 0.01% Triton-X solution, for the combinations, diluted with a 0.01% Triton-X solution containing formulated Bt, to get the desired test concentration. Tomato leaves were dipped in the solution for 10 seconds, shade dried for 20 min and then transferred to single cells of the bioassay trays. […] Observations on dead, moribund and live larvae were recorded at 72 h after the release. Percent mortality was calculated by combining dead and moribund larvae and comparing the results to the one of the untreated control. […]

Helicoverpa armigera = test: Leaf dip method (tomato leaves), Bacillus thuringiensis mixture against Helicoverpa armigera (Example D); settings: 0.1 ppm; 72 h
Description: as §1
as §2, with “concentrations.” for “concentration.”, “result” for “results”

Alternaria solani = test: Preventive glasshouse test against Alternaria solani in tomato (Example G); settings: preventive spray
Description: as §1
The single compounds or respective compound combinations were dissolved in 2% dimethyl sulfoxide/acetone and then mixed with water containing emulsifier to a calibrated spray volume of 50 mL. The test solutions were poured into spray bottles for further applications.
(§3) To test the preventive activity, healthy young tomato plants, raised in the greenhouse, were sprayed with the active compound preparation at the stated application rates inside the spray cabinets using hollow cone nozzles. One day after treatment, the plants were inoculated with a spore suspension containing 0.24×10^6 Alternaria solani inoculum and 2% Malt. The inoculated plants were then kept in a greenhouse chamber at a temperature of 22-24° C. and 90-95% relative humidity for disease expression.
A visual assessment of the performance of the single compounds or compound combinations was carried out by rating the disease severity (0-100% scale) on treated plants 3, 7, 10 and 15 days after application. Efficacy (% control) of the single compounds and mixtures was calculated by comparing the disease rating in the treatment with the one of the untreated control. The compounds were also assessed for their plant compatibility by recording symptoms like necrosis, chlorosis and stunting. The results have been described for the compound of formula (I-1) in Table G.

Plutella xylostella = test: Leaf dip method (cabbage leaves), Bacillus thuringiensis mixture against Plutella xylostella (Example F); settings: 0.1 ppm; 72 h
Description: as §1
as §2, with “test concentration. Cabbage leaves were” for “test concentration. Tomato leaves were”, “cells of bioassay trays.” for “cells of the bioassay trays.”, “were recorded 72 h” for “were recorded at 72 h”

Phakopsora pachyrhizi = test: Preventive glasshouse test against Phakopsora pachyrhizi in soybean (Example H); settings: preventive spray
Description: as §1
The single compounds or the respective compound combinations were dissolved in 2% dimethyl sulfoxide/acetone and then mixed with water containing an emulsifier to a calibrated spray volume of 50 ml. The test solutions were poured into spray bottles for further applications.
as §3, with “activity of compounds,” for “activity,”, “Soybean” for “tomato”, “a” for “a spore”, “2×10^5 Phakopsora pachyrhizi conidia.” for “0.24×10^6 Alternaria solani inoculum and 2% Malt.”, “80-90%” for “90-95%”
A visual assessment of the performance of the single compounds and respective compound combinations was carried out by rating the disease severity (0-100% scale) on treated plants 3, 7, 10 and 15 days after application. Efficacy (% control) of the compounds was calculated by comparing the disease rating in the treatment with the one of the untreated control. The compounds were also assessed for their plant compatibility by recording symptoms like necrosis, chlorosis and stunting. The results have been described for the compound of formula (I-1) in Table H.

Spodoptera litura [2] = test: Diet incorporation method against Spodoptera litura (Example B); settings: 96 h
Description: as §1
The diet incorporation method was used, in which semi-synthetic diet was incorporated into the test solution consisting either of the single compound or respective compound combinations, when the temperature was approximately 50° C. in the bioassay containers, then stirred thoroughly for proper mixing and allowed to cool for 30 min. The solidified diet was cut into equal pieces, and then each piece was transferred into one cell of the bio-assay trays. A single starved third instar larva was released into each of these cells of the bio-assay trays and the tray was covered with a lid. The bio-assay trays were kept under laboratory conditions at a temperature of 25° C. and relative humidity of 70%. Observations on dead, moribund and live larvae were recorded 96 h after the release. Percent mortality was calculated by combining dead and moribund larvae and comparing the result with the one of the untreated control. The results are shown for the compound of formula (I-1) in Table B.

SMILES: Cc1cc(Cl)cc(C(=O)NC(C)(C)C)c1NC(=O)c1cc(OC2CS(=O)(=O)C2)nn1-c1ncccc1Cl [Compound (I-1), N-(2-(tert-butylcarbamoyl)-4-chloro-6-methylphenyl)-1-(3-chloropyridin-2-yl)-3-((1,1-dioxidothietan-3-yl)oxy)-1H-pyrazole-5-carboxamide]
- Observed Efficacy (%) (Spodoptera litura [1]): 0%
- Observed Efficacy (%) (Helicoverpa armigera): 12.5%
- Observed Efficacy (%) (Alternaria solani; 100 ppm): 14%
- Observed Efficacy (%) (Alternaria solani; 500 ppm): 16%
- Observed Efficacy (%) (Plutella xylostella): 0%
- Observed Efficacy (%) (Phakopsora pachyrhizi; 100 ppm): 44%
- Observed Efficacy (%) (Phakopsora pachyrhizi; 500 ppm): 47%
- pest or weed control at 0.32 ppm (Spodoptera litura [2]; read-out: Observed Efficacy (%), 0.32 ppm): 37.5%
- pest or weed control at 1 ppm (Spodoptera litura [2]; read-out: Observed Efficacy (%), 1 ppm): 25%
